This is an account of results in patent publication US20240309003A1, “HETEROCYCLIC COMPOUNDS AS TRIGGERING RECEPTOR EXPRESSED ON MYELOID CELLS 2 AGONISTS AND METHODS OF USE” (Vigil Neuroscience, Inc., priority 2021, published 2024).

In the assay the target is T1, human TREM2 (Homo sapiens, UniProt Q9NZC2).
T1 construct: expressed in transfected cells; host or cells: HEK293T
In words: TREM2 agonist potency by cellular phosphorylation of Syk (AlphaLisa) in HEK293T-hTREM2 cells. The class given is cell-based. A digest of the protocol:
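Agonist EC50 from a variable-slope four-parameter fit of % activation, based on AlphaLisa phospho-Syk levels in lysates. Cells: HEK293T-hTREM2 (with DAP12), treated 45 min at room temperature with compound in assay buffer.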
A general note: Bead proximity is the source of the signal in Alpha formats.

Setting [1] is: HEK293 cells expressing human TREM2 and DAP12, Table D.
Setting [2] is: HEK293 cells expressing human TREM2 and DAP12, Table D-2.

The structures appear in SMILES notation.

T1 sequence (Q9NZC2 19-230): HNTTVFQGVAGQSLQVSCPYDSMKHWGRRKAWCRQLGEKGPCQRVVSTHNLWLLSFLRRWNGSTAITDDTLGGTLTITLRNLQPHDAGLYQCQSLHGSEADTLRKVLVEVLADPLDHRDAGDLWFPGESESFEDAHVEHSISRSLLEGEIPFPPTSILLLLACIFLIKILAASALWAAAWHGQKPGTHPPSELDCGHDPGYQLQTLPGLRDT
T1 sequence (O43914 22-113 partner): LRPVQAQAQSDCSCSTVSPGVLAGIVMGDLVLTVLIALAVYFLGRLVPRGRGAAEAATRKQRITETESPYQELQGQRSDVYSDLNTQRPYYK

As to `Cc1nc2nc([C@H]3CCO[C@@H](c4cnn(C5CC5)c4)C3)nc(C3C[C@@H](F)[C@@H](F)C3)c2nc1C` (stereo partly drawn) [Example 245, 2-((2R,4S)-2-(1-cyclopropyl-1H-pyrazol-4-yl)tetrahydro-2H-pyran-4-yl)-4-((3R,4S)-3,4-difluorocyclopentyl)-6,7-dimethylpteridine], under setting [1], the EC50 – broadly, the concentration needed to bring the measured effect to its halfway point – lay in the range of 500 to 3000 nM.
With `Cc1cc([C@H]2C[C@@H](c3nc(-c4ccc(Cl)c(F)c4F)c4ncc(C)nc4n3)CCO2)ccn1` [Example 130, 4-(4-chloro-2,3-difluorophenyl)-7-methyl-2-((2R,4S)-2-(2-methylpyridin-4-yl)tetrahydro-2H-pyran-4-yl)pteridine], the half-maximal effective concentration (EC50) under setting [1] was less than 50 nM.
The molecule `CN(C)C(=O)c1nc2c(-c3ccc(F)cc3F)nc(C3CCO[C@@H](c4cnn(C5CC5)c4)C3)nc2nc1C1CC1` (stereo partly drawn) [Example I-1603, 7-cyclopropyl-2-[(2R)-2-(1-cyclopropylpyrazol-4-yl)tetrahydropyran-4-yl]-4-(2,4-difluorophenyl)-N,N-dimethyl-pteridine-6-carboxamide] returned an EC50 under setting [2] of 500 to 3000 nM.
With `COc1ncccc1[C@@H]1C[C@H](c2nc(C34CC(C(F)(F)F)(C3)C4)c3nc(C)c(C)nc3n2)CCO1` [Example 143, 2-((2S,4R)-2-(2-methoxypyridin-3-yl)tetrahydro-2H-pyran-4-yl)-6,7-dimethyl-4-(3-(trifluoromethyl)bicyclo[1.1.1]pentan-1-yl)pteridine], under setting [1], the EC50 lay within 500 to 3000 nM.
Turning to `Cc1cc([C@H]2C[C@@H](c3nc(-c4ccc(C(F)(F)F)nc4)c4nc(C)c(C)nc4n3)CCO2)ccn1` (racemic) [Example 4, 6,7-dimethyl-2-((2R,4S)-2-(2-methylpyridin-4-yl)tetrahydro-2H-pyran-4-yl)-4-(6-(trifluoromethyl)pyridin-3-yl)pteridine], under setting [1], the 50% effective concentration (EC50) is 50 to 500 nM.
For the molecule `CC(=O)OCc1nc2c(-c3ccc(F)cc3F)nc([C@@H]3CCO[C@@H](c4cnn(C5CC5)c4)C3)cc2nc1C` [Example 246, (7-((2R,4R)-2-(1-cyclopropyl-1H-pyrazol-4-yl)tetrahydro-2H-pyran-4-yl)-5-(2,4-difluorophenyl)-2-methylpyrido[3,4-b]pyrazin-3-yl)methylacetate], under setting [1], the EC50 lay in the range of 3000 to 100000 nM.
Molecule `COc1ccc(-c2nc([C@H]3CCO[C@@H](c4cnn(C5CC5)c4)C3)nc3nc(C)c(C)nc23)cn1` [Example 239, 2-((2R,4S)-2-(1-cyclopropyl-1H-pyrazol-4-yl)tetrahydro-2H-pyran-4-yl)-4-(6-methoxypyridin-3-yl)-6,7-dimethylpteridine] returned an EC50 under setting [1] of 50 to 500 nM.
Under setting [1], `Cc1nc2nc([C@H]3CCO[C@@H](c4cnn(C5CC5)c4)C3)nc(C34CC(C(C)C)(C3)C4)c2nc1C` [Example 127, 2-((2R,4S)-2-(1-cyclopropyl-1H-pyrazol-4-yl)tetrahydro-2H-pyran-4-yl)-4-(3-isopropylbicyclo[1.1.1]pentan-1-yl)-6,7-dimethylpteridine] came in with an EC50 of less than 50 nM.
Take `Cc1nc2cc([C@H]3CCO[C@@H](c4cnn(C5CC5)c4)C3)nc(-c3ccc(F)cc3F)c2nc1CF` [Example I-1456, 7-((2R,4S)-2-(1-cyclopropyl-1H-pyrazol-4-yl)tetrahydro-2H-pyran-4-yl)-5-(2,4-difluorophenyl)-3-(fluoromethyl)-2-methylpyrido[3,4-b]pyrazine]: under setting [2], the concentration for a half-maximal effect (EC50) is less than 50 nM.
In turn, `COCn1cc([C@H]2CN(c3nc(-c4ccc(F)cc4F)c4nc(C)c(C)nc4n3)C[C@@H](C)O2)cn1` [Example I-1441, (2S,6R)-4-[4-(2,4-difluorophenyl)-6,7-dimethyl-pteridin-2-yl]-2-[1-(methoxymethyl)pyrazol-4-yl]-6-methyl-morpholine] yielded an EC50 under setting [2] of less than 50 nM.
For the molecule `COc1cccc([C@H]2C[C@@H](c3nc(-c4ccc(F)cc4F)c4nc(C)c(C)nc4n3)CCO2)n1` [Example 165, 4-(2,4-difluorophenyl)-2-((2R,4S)-2-(6-methoxypyridin-2-yl)tetrahydro-2H-pyran-4-yl)-6,7-dimethylpteridine], under setting [1], the EC50 lay in the range of 50 to 500 nM.
The molecule `Cc1nc2nc([C@@H]3CCO[C@H](c4ccc(=O)n(C)c4)C3)nc(-c3ccc(F)cc3F)c2nc1C` [Example 200] returned an EC50 under setting [1] of less than 50 nM.
In turn, `[2H]C1([2H])C[C@H](c2nc(-c3ccc(Cl)cc3F)c3nc(C)c(C)nc3n2)C[C@H](c2cnn(C3CC3)c2)O1` [Example 188, 4-(4-chloro-2-fluorophenyl)-2-((2R,4S)-2-(1-cyclopropyl-1H-pyrazol-4-yl)tetrahydro-2H-pyran-4-yl-6,6-d2)-6,7-dimethylpteridine] yielded an EC50 under setting [1] of less than 50 nM.
`Cc1cc([C@@H]2CN(c3nc(-c4ccc(Cl)cc4F)c4nc(C)c(C)nc4n3)CCO2)on1` (stereo in doubt) [Example I-1241, 4-[4-(4-chloro-2-fluoro-phenyl)-6,7-dimethyl-pteridin-2-yl]-2-(3-methylisoxazol-5-yl)morpholine] came in with an EC50 under setting [2] of less than 50 nM.
For the molecule `Cc1nc2nc([C@H]3CCO[C@@H](c4cnn(C5CC5)c4)C3)nc(C3CCC(F)(F)CC3)c2nc1C` [Example 180, 2-((2R,4S)-2-(1-cyclopropyl-1H-pyrazol-4-yl)tetrahydro-2H-pyran-4-yl)-4-(4,4-difluorocyclohexyl)-6,7-dimethylpteridine], the EC50 under setting [1] is less than 50 nM.
Consider `[2H][C@]1(c2cnn(C3CC3)c2)C[C@@H](c2nc(-c3ccc(F)cc3F)c3nc(C)c(C)nc3n2)CCO1` [Example 182, 2-((2R,4S)-2-(1-cyclopropyl-1H-pyrazol-4-yl)tetrahydro-2H-pyran-4-yl-2-d)-4-(2,4-difluorophenyl)-6,7-dimethylpteridine], for which the EC50 under setting [1] is less than 50 nM.
In the case of `Cc1cnc2c(-c3ccc(F)cc3F)nc(N3C[C@@H](c4cnn(C5CC5)c4)O[C@@H](C)C3)cc2n1` [Example 208, (2R,6S)-2-(1-cyclopropyl-1H-pyrazol-4-yl)-4-(5-(2,4-difluorophenyl)-2-methylpyrido[3,4-b]pyrazin-7-yl)-6-methylmorpholine], the EC50 under setting [1] lay within 500 to 3000 nM.
`Cc1nc2cc([C@H]3CCO[C@@H](c4cnn(C5CC5)c4)C3)cc(-c3ccc(Cl)cc3F)c2nc1C` [Example 228, 5-(4-chloro-2-fluorophenyl)-7-((2R,4S)-2-(1-cyclopropyl-1H-pyrazol-4-yl)tetrahydro-2H-pyran-4-yl)-2,3-dimethylquinoxaline] registered an EC50 under setting [1] of 50 to 500 nM.
In the case of `COCn1cc([C@H]2CN(c3nc(-c4ccc(F)cc4F)c4nc(C)c(C)nc4n3)C[C@@H](C3CC3)O2)cn1` [Example I-1736, (2R,6S)-2-cyclopropyl-4-[4-(2,4-difluorophenyl)-6,7-dimethyl-pteridin-2-yl]-6-[1-(methoxymethyl)pyrazol-4-yl]morpholine], under setting [2], the EC50 was less than 50 nM.
In turn, `Cc1nc2nc([C@@H]3CCO[C@H](c4cccc(=O)n4C)C3)nc(-c3ccc(F)cc3F)c2nc1C` [Example 202] showed an EC50 under setting [1] of 500 to 3000 nM.
Still for that read-out and setting: with `[2H][C@@]1(c2cnn(C3CC3)c2)C[C@H](c2nc(-c3ccc(F)cc3F)c3nc(C)c(C)nc3n2)CCO1` (single isomer, unassigned) [Example 183] the figure was 3000 to 100000 nM; with `Cc1cc2nc([C@H]3CCO[C@@H](c4cnn(C5CC5)c4)C3)nc(-c3ccc(Cl)cc3F)c2nc1C` [Example 222, 4-(4-chloro-2-fluorophenyl)-2-((2R,4S)-2-(1-cyclopropyl-1H-pyrazol-4-yl)tetrahydro-2H-pyran-4-yl)-6,7-dimethylpyrido[3,2-d]pyrimidine], 500 to 3000 nM; with `Cc1nc2nc([C@@H]3CCO[C@H](c4cnn(CCF)c4)C3)nc(-c3ccc(F)cc3F)c2nc1C` [Example 149, 4-(2,4-difluorophenyl)-2-((2S,4R)-2-(1-(2-fluoroethyl)-1H-pyrazol-4-yl)tetrahydro-2H-pyran-4-yl)-6,7-dimethylpteridine], 500 to 3000 nM.
The molecule `Cc1nc2nc(-c3ccc(Cl)cc3F)cc(N3C[C@@H](C)O[C@@H](c4cnn(C5CC5)c4)C3)c2nc1C` [Example I-1081, (2S,6R)-4-[6-(4-chloro-2-fluoro-phenyl)-2,3-dimethyl-pyrido[2,3-b]pyrazin-8-yl]-2-(1-cyclopropylpyrazol-4-yl)-6-methyl-morpholine] gave an EC50 under setting [2] of 500 to 3000 nM.
In the case of `Cc1cc(F)c(-c2nc([C@H]3CCO[C@@H](c4cnn(C5CC5)c4)C3)nc3nc(C)c(C)nc23)cc1F` [Example I-1572, 2-[(2R,4S)-2-(1-cyclopropylpyrazol-4-yl)tetrahydropyran-4-yl]-4-(2,5-difluoro-4-methyl-phenyl)-6,7-dimethyl-pteridine], the EC50 under setting [2] was less than 50 nM.
`Cc1cc([C@H]2C[C@@H](c3nc(-c4cc(F)c(Cl)c(F)c4)c4nc(C)c(C)nc4n3)CCO2)ccn1` [Example 133, 4-(4-chloro-3,5-difluorophenyl)-6,7-dimethyl-2-((2R,4S)-2-(2-methylpyridin-4-yl)tetrahydro-2H-pyran-4-yl)pteridine] had a half-maximal effective concentration (EC50) under setting [1] of less than 50 nM.
Molecule `COCn1cc([C@H]2CN(c3nc(-c4ccc(Cl)cc4F)c4nc(C)c(C)nc4n3)C[C@@H](C)O2)cn1` [Example I-1446, (2S,6R)-4-[4-(4-chloro-2-fluoro-phenyl)-6,7-dimethyl-pteridin-2-yl]-2-[1-(methoxymethyl)pyrazol-4-yl]-6-methyl-morpholine] registered a 50% effective concentration (EC50) under setting [2] of less than 50 nM.
`Cc1nc2nc(N3CCO[C@H](c4cnn5c4CCC5)C3)nc(-c3ccc(F)cc3F)c2nc1C` [Example I-1529, (2R)-4-[4-(2,4-difluorophenyl)-6,7-dimethyl-pteridin-2-yl]-2-(5,6-dihydro-4H-pyrrolo[1,2-b]pyrazol-3-yl)morpholine]: the EC50 under setting [2] lay within 50 to 500 nM.
For the molecule `Cc1cc2c(-c3ccc(Cl)cc3F)nc([C@@H]3CCO[C@@H](c4cnn(C5CC5)c4)C3)nc2nc1C` [Example 216, 4-(4-chloro-2-fluorophenyl)-2-((2R,4R)-2-(1-cyclopropyl-1H-pyrazol-4-yl)tetrahydro-2H-pyran-4-yl)-6,7-dimethylpyrido[2,3-d]pyrimidine], the EC50 under setting [1] was less than 50 nM.
